In brackets after ≈: the same amount, converted by molar mass. Activity calls are given as the source filed them. The rule behind the calls is not given here.
How the values were obtained:
[1] = system: Escherichia coli; test: Antibacterial activity against Escherichia coli ATCC 25922 after 24 hr by two-fold serial dilution method; assay type: functional; conditions: ATCC 25922, 24 h
[2] = system: Bacillus subtilis; test: Antibacterial activity against Bacillus subtilis ATCC 6633 after 24 hr by two-fold serial dilution method; assay type: functional; conditions: ATCC 6633, 24 h
[3] = system: Pseudomonas aeruginosa; test: Antibacterial activity against Pseudomonas aeruginosa ATCC 27853 after 24 hr by two-fold serial dilution method; assay type: functional; conditions: ATCC 27853, 24 h
[4] = system: Pseudomonas aeruginosa; test: Bacteriostatic activity against Pseudomonas aeruginosa ATCC 27853 after 24 hr by two-fold serial dilution method; assay type: functional, organism-based
[5] = system: SH-SY5Y; test: Cytotoxicity against Homo sapiens (human) SH-SY5Y cells at 30 uM compound photoirradiated for 20 min followed by 24 hr incubation by LDH release assay; assay type: functional, cell-based
[6] = system: SH-SY5Y; test: Antiproliferative activity against Homo sapiens (human) SH-SY5Y cells at 5 uM compound photoirradiated for 20 min followed by 24 hr incubation by WST-1 assay; assay type: functional, cell-based
[7] = system: HeLa; test: Cytotoxicity against Homo sapiens (human) HeLa cells compound at 1 to 30 uM after 24 hr by LDH release assay; assay type: functional, cell-based
[8] = system: HeLa; test: Cytotoxicity against Homo sapiens (human) HeLa cells at 30 uM compound photoirradiated for 20 min followed by 24 hr incubation by LDH release assay; assay type: functional, cell-based
[9] = system: U-87MG ATCC; test: Antiproliferative activity against Homo sapiens (human) U87 cells at 5 uM after 24 hr by WST-1 assay; assay type: functional, cell-based
[10] = system: HeLa; test: Antiproliferative activity against Homo sapiens (human) HeLa cells at 5 uM after 24 hr by WST-1 assay; assay type: functional, cell-based
[11] = system: SH-SY5Y; test: Antiproliferative activity against Homo sapiens (human) SH-SY5Y cells at 5 uM after 24 hr by WST-1 assay; assay type: functional, cell-based
[12] = system: SH-SY5Y; test: Cytotoxicity against Homo sapiens (human) SH-SY5Y cells compound photoirradiated for 20 min followed by 24 hr incubation by LDH release assay; assay type: functional, cell-based
[13] = system: Bacillus subtilis; test: Antibacterial activity against Bacillus subtilis ATCC 6633 compound photoirradiated for 20 min followed by 24 hr incubation by two-fold serial dilution method; assay type: functional; conditions: ATCC 6633, light or radiation study
[14] = system: Escherichia coli; test: Antibacterial activity against Escherichia coli ATCC 25922 compound photoirradiated for 20 min followed by 24 hr incubation by two-fold serial dilution method; assay type: functional; conditions: ATCC 25922, light or radiation study
[15] = system: U-87MG ATCC; test: Antiproliferative activity against Homo sapiens (human) U87 cells at 5 uM compound photoirradiated for 20 min followed by 24 hr incubation by WST-1 assay; assay type: functional, cell-based
[16] = system: U-87MG ATCC; test: Cytotoxicity against Homo sapiens (human) U87 cells at 30 uM compound photoirradiated for 20 min followed by 24 hr incubation by LDH release assay; assay type: functional, cell-based
[17] = system: U-87MG ATCC; test: Cytotoxicity against Homo sapiens (human) U87 cells at 1 to 30 uM after 24 hr by LDH release assay; assay type: functional, cell-based
[18] = system: HeLa; test: Antiproliferative activity against Homo sapiens (human) HeLa cells at 5 uM compound photoirradiated for 20 min followed by 24 hr incubation by WST-1 assay; assay type: functional, cell-based
[19] = system: SH-SY5Y; test: Cytotoxicity against Homo sapiens (human) SH-SY5Y cells at 1 to 30 uM after 24 hr by LDH release assay; assay type: functional, cell-based
[20] = system: Pseudomonas aeruginosa; test: Antibacterial activity against Pseudomonas aeruginosa ATCC 27853 compound photoirradiated for 20 min followed by 24 hr incubation by two-fold serial dilution method; assay type: functional; conditions: ATCC 27853, light or radiation study
[21] = system: HeLa; test: Cytotoxicity against Homo sapiens (human) HeLa cells compound photoirradiated for 20 min followed by 24 hr incubation by LDH release assay; assay type: functional, cell-based
[22] = system: Bacillus subtilis; test: Antibacterial activity against Bacillus subtilis ATCC 6633 at 16 ug/ml compound photoirradiated for 20 min followed by 24 hr incubation by two-fold serial dilution method; assay type: functional, organism-based
[23] = system: Bacillus subtilis; test: Antibacterial activity against Bacillus subtilis ATCC 6633 at 16 ug/ml after 24 hr by two-fold serial dilution method; assay type: functional, organism-based
[24] = system: U-87MG ATCC; test: Cytotoxicity against Homo sapiens (human) U87 cells compound photoirradiated for 20 min followed by 24 hr incubation by LDH release assay; assay type: functional, cell-based

For `CC[C@H]1OC(=O)[C@H](C)[C@@H](O[C@H]2C[C@@](C)(OC)[C@@H](O)[C@H](C)O2)[C@H](C)[C@@H](O[C@@H]2O[C@H](C)C[C@H](N(C)C)[C@H]2O)[C@](C)(O)C[C@@H](C)C(=O)[C@H](C)[C@@H](O)[C@]1(C)O` [ERYTHROMYCIN], the MIC [1] was 128 µg/mL (≈ 174 µM), the MIC [2] was under 0.125 µg/mL and the MIC [3] was under 0.125 µg/mL.

In the case of `CC1(C)S[C@@H]2[C@H](NC(=O)[C@H](N)c3ccccc3)C(=O)N2[C@H]1C(=O)O` [AMPICILLIN], the MIC [1] is reported as over 256 µg/mL, the MIC [2] is reported as over 256 µg/mL and the MIC [3] is reported as 128 µg/mL (≈ 366 µM).

Compound `CCn1cc(C(=O)O)c(=O)c2ccc(C)nc21` [NALIDIXIC ACID] has an MIC [1] of 16 µg/mL (≈ 68.9 µM), an MIC [2] of 8 µg/mL (≈ 34.4 µM) and an MIC [3] of 2 µg/mL (≈ 8.61 µM).

Work on `NC[C@H]1O[C@H](O[C@H]2[C@H](O)[C@@H](O[C@H]3O[C@H](CO)[C@@H](O)[C@H](N)[C@H]3O)[C@H](N)C[C@@H]2N)[C@H](O)[C@@H](O)[C@@H]1O` [KANAMYCIN] yielded an MIC [1] of 16 µg/mL (≈ 33 µM), an MIC [2] of over 256 µg/mL and an MIC [3] of 2 µg/mL (≈ 4.13 µM).

`CN(C)[C@@H]1C(O)=C(C(N)=O)C(=O)[C@@]2(O)C(O)=C3C(=O)c4c(O)cccc4[C@@](C)(O)[C@H]3C[C@@H]12` [TETRACYCLINE] showed an MIC [1] of 2 µg/mL (≈ 4.5 µM), an MIC [2] of 8 µg/mL (≈ 18 µM) and an MIC [3] of 1 µg/mL (≈ 2.25 µM).

With `C=CC1=C(C)c2cc3[nH]c(cc4nc(cc5[nH]c(cc1n2)c(C)c5CCC(=O)O)C(CCC(=O)O)=C4C)c(C)c3C=C` [PROTOPORPHYRIN] the Activity [4] was “Active”, the Activity [5] was “inactive” and the Activity [6] was “Active”. The Activity [7] was “inactive”, the Activity [8] was “inactive” and the Activity [9] was “inactive”. The Activity [10] was “inactive”, the Activity [11] was “inactive” and the Activity [12] was “Dose-dependent effect”. For the same compound, the MIC [13] was 80 µg/mL (≈ 142 µM), the MIC [14] was 128 µg/mL (≈ 227 µM) and the MIC [1] was 128 µg/mL (≈ 227 µM). The Activity [15] was “Active”, the Activity [16] was “inactive” and the Activity [17] was “inactive”. The Activity [18] was “Active”, the Activity [19] was “inactive” and the MIC [20] was 128 µg/mL (≈ 227 µM). The MIC [2] was 100 µg/mL (≈ 178 µM), the Activity [21] was “Dose-dependent effect” and the Activity [22] was “inactive”. For the same compound, the Activity [23] was “Active”, the MIC [3] was 128 µg/mL (≈ 227 µM) and the Activity [24] was “Dose-dependent effect”.

For `C=Cc1c(C)c2cc3[nH]c(cc4nc(cc5nc(cc1[nH]2)C(C)=C5CCC(=O)NCCc1ccc(O)c(O)c1)C(CCC(=O)NCCc1ccc(O)c(O)c1)=C4C)c(C)c3C=C`, the Activity [4] was “Active”, the Activity [5] was “inactive” and the Activity [6] was “Active”. For the same compound, the Activity [7] was “inactive”, the Activity [8] was “inactive” and the Activity [9] was “inactive”. For the same compound, the Activity [10] was “inactive”, the Activity [11] was “inactive” and the Activity [12] was “Dose-dependent effect”. For the same compound, the MIC [13] was 80 µg/mL (≈ 96 µM), the MIC [14] was 128 µg/mL (≈ 154 µM) and the MIC [1] was 128 µg/mL (≈ 154 µM). For the same compound, the Activity [15] was “Active”, the Activity [16] was “inactive” and the Activity [17] was “inactive”. For the same compound, the Activity [18] was “Active”, the Activity [19] was “inactive” and the MIC [20] was 128 µg/mL (≈ 154 µM). For the same compound, the MIC [2] was 100 µg/mL (≈ 120 µM), the Activity [21] was “Dose-dependent effect” and the Activity [22] was “inactive”. The Activity [23] was “Active”, the MIC [3] was 128 µg/mL (≈ 154 µM) and the Activity [24] was “Dose-dependent effect”.

Compound `CN[C@@H]1[C@H](O[C@H]2[C@H](O[C@H]3[C@H](O)[C@@H](O)[C@H](N=C(N)N)[C@@H](O)[C@@H]3N=C(N)N)O[C@@H](C)[C@]2(O)C=O)O[C@@H](CO)[C@H](O)[C@H]1O` [STREPTOMYCIN] has an MIC [1] of over 256 µg/mL, an MIC [2] of 16 µg/mL (≈ 27.5 µM) and an MIC [3] of 64 µg/mL (≈ 110 µM).

Source: ChEMBL document CHEMBL3046485, “Photodynamic activities of protoporphyrin IX and its dopamine conjugate against cancer and bacterial cell viability” (2012)
